{
  "source": "paper PMC7539967",
  "about": "“The Plasmodium falciparum eIK1 kinase (PfeIK1) is central for melatonin synchronization in the human malaria parasite. Melatotosil blocks melatonin action on parasite cell cycle” (Journal of Pineal Research, 2020)",
  "key": {"[1]": {"test_system": "Plasmodium falciparum 3D7", "assay": "Effect of indole compounds in parasitemia (48 h), 3D7", "format": "cell-based", "details": "3D7, 100 nM melatonin", "method": "Red blood cells infected (iRBC) with 3D7 or PfeIK1^‐ (iRBC) with 1% initial parasitemia and 2% hematocrit were incubated with 500 nM of the synthetic indole compounds or 100 nM Melatonin for 48 hours at 37°C under mixture of gases. ^12 The control group received 0.0013% of solvent dimethyl sulfoxide (DMSO).\nAfter 48 hours, iRBC were double‐stained ^34 with nucleic acid marker SYBR Green I (1X) and mitochondria marker, based on membrane potential, MitoTracker Deep Red (50 nM), and incubated for 20 minutes at 37°C.\nFinal parasitemia was obtained by flow cytometer using an Accuri C6 flow cytometer (Becton Dickinson), collecting 10^4 cells. Parasitemia was determined by dot plots using FlowJo 5 software."}, "[2]": {"test_system": "pfeik1 gene expression in P. falciparum 3D7", "assay": "Quantitative real-time PCR of pfeik1 expression", "format": "cell-based, Plasmodium falciparum", "details": "100 nM melatonin, 4 h", "method": "For these experiments, P. falciparum 3D7 culture was synchronized with 5% sorbitol and parasites collected in the three stages: ring (14 hours); trophozoite (30 hours); and schizont (44 hours), at 4% parasitemia. Parasites were treated with 100 nM Melatonin or 0.00005% ethanol (control) and left for 4 hours before RNA extraction with Trizol (Invitrogen). RNA purified with ionic exchange columns with DNAse using RNAse‐free DNAse set (Qiagen) and RNeasy Mini Kit (Qiagen) and quantified in a UV‐Vis NanoDrop 2000c (Thermo Scientific). Three independent experiments were performed in triplicates.\ncDNA syntheses were performed using random primers and Superscript II reverse transcriptase (Invitrogen) according to the manufacturer’s protocol. SYBR Green (Applied Biosystems) was used in quantitative real‐time PCR on a 7300 Real‐Time PCR System (Applied Biosystems). Amplification was carried out as follow: on step 50°C for 2 min and 95°C for 10 min for enzyme activation followed by 40 cycles of 95°C for 0.15 min for denaturation and 60°C for 1 min for annealing/extension. The primers used were as follows: PF14_0423‐Fwd […] and PF14_0423‐Rvs […].\nChanges in relative expression were determined by 2^‐ΔΔCt or transforming the threshold cycle in absolute number of mRNA. […]"}},
  "data": [
    {"smiles": "COc1ccc2[nH]cc(CCNC(C)=O)c2c1", "note": "[melatonin, N‐acetyl‐ 5‐methoxytryptamine]", "values": [
      {"measurement": "increase in parasitemia", "setting": "[1]", "value": "approximately 10%"},
      {"measurement": "parasitemia normalized to control, hormone only", "setting": "[1]", "value": 110, "unit": "%"},
      {"measurement": "decrease in pfeik1 expression compared to control", "setting": "[2]; ring stage", "value": 40, "unit": "%"},
      {"measurement": "pfeik1 expression vs solvent", "setting": "[2]; trophozoite and schizont stages", "value": "no significant difference"}
    ]}
  ]
}
